≈ marks a conversion by molar mass, not a printed value.
Key:
Assay in all cases: in vitro antibacterial activity (MIC), agar dilution
Format in all cases: cell-based
Candida albicans CCH 442 = details: organism code TT; BHI agar, 35-37° C., 20 to 24 hours; unit assumed
Description: (§1) Representative compounds of the present invention were assayed in vitro for antibacterial activity as follows: Twelve petri dishes containing successive aqueous dilutions of the test compound mixed with 10 mL of sterilized Brain Heart Infusion (BHI) agar (Difco 0418-01-5) were prepared. Each plate was inoculated with 1:100 (or 1:10 for slow-growing strains, such as Micrococcus and Streptococcus) dilutions of up to 32 different microorganisms, using a Steers replicator block. […] In addition, a control plate, using BHI agar containing no test compound, was prepared and incubated at the beginning and end of each test.
(§2) An additional plate containing a compound having known susceptibility patterns for the organisms being tested and belonging to the same antibiotic class as the test compound was also prepared and incubated as a further control, as well as to provide test-to-test comparability.
(§3) After incubation, each plate was visually inspected. The minimum inhibitory concentration (MIC) was defined as the lowest concentration of drug yielding no growth, a slight haze, or sparsely isolated colonies on the inoculum spot as compared to the growth control.

Escherichia coli JUHL = details: organism code QQ; BHI agar, 35-37° C., 20 to 24 hours; unit assumed
Description: as §1, §2, §3

Escherichia coli SS = details: organism code RR; BHI agar, 35-37° C., 20 to 24 hours; unit assumed
Description: as §1, §2, §3

[1] = tested on: Haemophilis Influenzae DILL AMP R; details: organism code WW; BHI agar, 35-37° C., 20 to 24 hours; unit assumed
Description: as §1, §2, §3

[2] = tested on: Micrococcus luteus ATCC 4698; details: organism code PP; BHI agar, 35-37° C., 20 to 24 hours; unit assumed
Description: as §1, §2, §3

[3] = tested on: Mycobacterium smegmatis ATCC 114; details: organism code UU; BHI agar, 35-37° C., 20 to 24 hours; unit assumed
Description: as §1, §2, §3

[4] = tested on: Nocardia Asteroides ATCC9970; details: organism code VV; BHI agar, 35-37° C., 20 to 24 hours; unit assumed
Description: as §1, §2, §3

[5] = tested on: Staphylococcus aureus 1775; details: organism code GG; BHI agar, 35-37° C., 20 to 24 hours; unit assumed
Description: as §1, §2, §3

[6] = tested on: Staphylococcus aureus A-5278; details: organism code CC; BHI agar, 35-37° C., 20 to 24 hours; unit assumed
Description: as §1, §2, §3

[7] = tested on: Staphylococcus aureus A5177; details: organism code BB; BHI agar, 35-37° C., 20 to 24 hours; unit assumed
Description: as §1, §2, §3

[8] = tested on: Staphylococcus aureus ATCC 6538P; details: organism code AA; BHI agar, 35-37° C., 20 to 24 hours; unit assumed
Description: as §1, §2, §3

[9] = tested on: Staphylococcus aureus NCTC10649M; details: organism code EE; BHI agar, 35-37° C., 20 to 24 hours; unit assumed
Description: as §1, §2, §3

[10] = tested on: Staphylococcus epidermidis 3519; details: organism code HH; BHI agar, 35-37° C., 20 to 24 hours; unit assumed
Description: as §1, §2, §3

[11] = tested on: Streptococcus Pneumonia 5649; details: organism code ZZA; BHI agar, 35-37° C., 20 to 24 hours; unit assumed
Description: as §1, §2, §3

[12] = tested on: Streptococcus Pneumonia 5979; details: organism code ZZ; BHI agar, 35-37° C., 20 to 24 hours; unit assumed
Description: as §1, §2, §3

[13] = tested on: Streptococcus Pneumonia ATCC6303; details: organism code XX; BHI agar, 35-37° C., 20 to 24 hours; unit assumed
Description: as §1, §2, §3

[14] = tested on: Streptococcus Pneumonia GYR 1171; details: organism code YY; BHI agar, 35-37° C., 20 to 24 hours; unit assumed
Description: as §1, §2, §3

[15] = tested on: Streptococcus agalactiae CMX 508; details: organism code KK; BHI agar, 35-37° C., 20 to 24 hours; unit assumed
Description: as §1, §2, §3

[16] = tested on: Streptococcus bovis A-5169; details: organism code JJ; BHI agar, 35-37° C., 20 to 24 hours; unit assumed
Description: as §1, §2, §3

[17] = tested on: Streptococcus pyogenes 930; details: organism code MM; BHI agar, 35-37° C., 20 to 24 hours; unit assumed
Description: as §1, §2, §3

[18] = tested on: Streptococcus pyogenes EES61; details: organism code LL; BHI agar, 35-37° C., 20 to 24 hours; unit assumed
Description: as §1, §2, §3

[19] = tested on: Streptococcus pyogenes PIU 2548; details: organism code NN; BHI agar, 35-37° C., 20 to 24 hours; unit assumed
Description: as §1, §2, §3

[20] = tested on: Enterococcus faecium ATCC 8043; details: organism code II; BHI agar, 35-37° C., 20 to 24 hours; unit assumed
Description: as §1, §2, §3

[21] = tested on: Staphylococcus aureus CMX 553; details: organism code FF; BHI agar, 35-37° C., 20 to 24 hours; unit assumed
Description: as §1, §2, §3

[22] = tested on: Staphylococcus aureus CMX 642A; details: organism code DD; BHI agar, 35-37° C., 20 to 24 hours; unit assumed
Description: as §1, §2, §3

Structure (SMILES) | MIC (Candida albicans CCH 442) [µg/mL] | MIC (Escherichia coli JUHL) [µg/mL] | MIC (Escherichia coli SS) [µg/mL] | MIC [1] [µg/mL] | MIC [2] [µg/mL] | MIC [3] [µg/mL] | MIC [4] [µg/mL] | MIC [5] [µg/mL] | MIC [6] [µg/mL] | MIC [7] [µg/mL] | MIC [8] [µg/mL] | MIC [9] [µg/mL] | MIC [10] [µg/mL] | MIC [11] [µg/mL] | MIC [12] [µg/mL] | MIC [13] [µg/mL] | MIC [15] [µg/mL] | MIC [16] [µg/mL] | MIC [18] [µg/mL] | MIC [19] [µg/mL] | further results
CC[C@H]1OC(=O)[C@H](C)C(=O)[C@H](C)[C@@H](O[C@@H]2O[C@H](C)C[C@H](N(C)C)[C@H]2O)[C@](C)(OCC#Cc2ccc(-c3cscn3)s2)C[C@@H](C)C(=O)[C@H](C)[C@H]2NC(=O)O[C@@]21C [Example 30] | > 100 | 12.5 (≈ 15.6 µM) | 0.1 (≈ 0.125 µM) | 2 (≈ 2.49 µM) | 0.1 (≈ 0.125 µM) | 0.39 (≈ 0.486 µM) | 0.01 (≈ 0.0125 µM) | > 100 | > 100 | 0.02 (≈ 0.0249 µM) | 0.02 (≈ 0.0249 µM) | 0.05 (≈ 0.0623 µM) | 0.05 (≈ 0.0623 µM) | 0.25 (≈ 0.312 µM) | 1 (≈ 1.25 µM) | ≤ 0.004 | 0.02 (≈ 0.0249 µM) | ≤ 0.005 | 0.02 (≈ 0.0249 µM) | 0.1 (≈ 0.125 µM) | MIC [14]: ≤ 0.004 µg/mL; MIC [17]: 6.2 µg/mL (≈ 7.73 µM)
CC[C@H]1OC(=O)[C@H](C)C(=O)[C@H](C)[C@@H](O[C@@H]2O[C@H](C)C[C@H](N(C)C)[C@H]2O)[C@](C)(OCC#Cc2ccc(-c3ccccn3)s2)C[C@@H](C)C(=O)[C@H](C)[C@H]2NC(=O)O[C@@]21C [Example 1] |  |  | 0.1 (≈ 0.126 µM) |  | 0.1 (≈ 0.126 µM) |  |  |  |  |  | 0.05 (≈ 0.0628 µM) | 0.1 (≈ 0.126 µM) | 0.1 (≈ 0.126 µM) |  |  |  |  |  |  | 0.1 (≈ 0.126 µM) | 
CC[C@H]1OC(=O)[C@H](C)C(=O)[C@H](C)[C@@H](O[C@@H]2O[C@H](C)C[C@H](N(C)C)[C@H]2O)[C@](C)(OCC#Cc2ccc(-c3ccccn3)s2)C[C@@H](C)C2=NCCN3C(=O)O[C@@]1(C)[C@H]3[C@H]2C [Example 35] | > 100 | 25 (≈ 30.4 µM) | 0.39 (≈ 0.475 µM) | 4 (≈ 4.87 µM) | 0.2 (≈ 0.244 µM) | 0.2 (≈ 0.244 µM) | 0.02 (≈ 0.0244 µM) | > 100 | > 100 | 0.1 (≈ 0.122 µM) | 0.05 (≈ 0.0609 µM) | 0.2 (≈ 0.244 µM) | 0.1 (≈ 0.122 µM) | 0.25 (≈ 0.304 µM) | 4 (≈ 4.87 µM) | ≤ 0.004 | 0.05 (≈ 0.0609 µM) | 0.01 (≈ 0.0122 µM) | 0.02 (≈ 0.0244 µM) | 0.2 (≈ 0.244 µM) | MIC [14]: ≤ 0.004 µg/mL; MIC [17]: 6.2 µg/mL (≈ 7.55 µM)
CC[C@H]1OC(=O)[C@H](C)C(=O)[C@H](C)[C@@H](O[C@@H]2O[C@H](C)C[C@H](N(C)C)[C@H]2O)[C@](C)(OCC#Cc2ccc(-c3cccnc3)s2)C[C@@H](C)C(=O)[C@H](C)[C@H]2NC(=O)O[C@@]21C [Example 2] |  |  | 0.1 (≈ 0.126 µM) |  | 0.1 (≈ 0.126 µM) |  | 0.05 (≈ 0.0628 µM) |  |  | 0.05 (≈ 0.0628 µM) | 0.05 (≈ 0.0628 µM) | 0.05 (≈ 0.0628 µM) | 0.05 (≈ 0.0628 µM) |  |  |  |  |  |  | 0.1 (≈ 0.126 µM) | MIC [20]: 0.05 µg/mL (≈ 0.0628 µM); MIC [21]: 0.05 µg/mL (≈ 0.0628 µM); MIC [22]: 0.05 µg/mL (≈ 0.0628 µM)
CC[C@H]1OC(=O)[C@H](C)C(=O)[C@H](C)[C@@H](O[C@@H]2O[C@H](C)C[C@H](N(C)C)[C@H]2O)[C@](C)(OCC#Cc2ccc(-c3ccncc3)s2)C[C@@H](C)C(=O)[C@H](C)[C@H]2NC(=O)O[C@@]21C [Example 3] | > 100 | 100 (≈ 126 µM) | 0.2 (≈ 0.251 µM) |  | 0.05 (≈ 0.0628 µM) |  | 0.01 (≈ 0.0126 µM) |  | > 100 | 0.05 (≈ 0.0628 µM) | 0.05 (≈ 0.0628 µM) |  | > 100 |  |  |  | ≤ 0.05 | ≤ 0.05 | ≤ 0.05 | 0.1 (≈ 0.126 µM) | MIC [22]: 0.1 µg/mL (≈ 0.126 µM)
CC[C@H]1OC(=O)[C@H](C)C(=O)[C@H](C)[C@@H](O[C@@H]2O[C@H](C)C[C@H](N(C)C)[C@H]2O)[C@](C)(OCC#Cc2ccc(-c3ccccn3)s2)C[C@@H](C)C(=O)[C@H](C)[C@H]2N(N)C(=O)O[C@]12C [Example 36] | > 100 |  | 0.2 (≈ 0.247 µM) |  | 0.1 (≈ 0.123 µM) | 1.56 (≈ 1.92 µM) |  | > 100 | > 100 | 0.05 (≈ 0.0617 µM) | 0.05 (≈ 0.0617 µM) | 0.1 (≈ 0.123 µM) | 0.1 (≈ 0.123 µM) |  |  |  |  |  |  | 0.39 (≈ 0.481 µM) | 
CC[C@H]1OC(=O)[C@H](C)C(=O)[C@H](C)[C@@H](O[C@@H]2O[C@H](C)C[C@H](N(C)C)[C@H]2O)[C@](C)(OC/C=C/c2ccc(-c3ccncn3)s2)C[C@@H](C)C(=O)[C@H](C)[C@H]2NC(=O)O[C@@]21C [Example 64] | > 100 | 50 (≈ 62.6 µM) | 0.39 (≈ 0.488 µM) | 2 (≈ 2.5 µM) | 0.2 (≈ 0.25 µM) | 0.78 (≈ 0.976 µM) | 0.01 (≈ 0.0125 µM) | > 100 | > 100 | 0.05 (≈ 0.0626 µM) | 0.05 (≈ 0.0626 µM) | 0.05 (≈ 0.0626 µM) | 0.05 (≈ 0.0626 µM) | 0.25 (≈ 0.313 µM) | 2 (≈ 2.5 µM) | ≤ 0.004 | 0.02 (≈ 0.025 µM) | ≤ 0.005 | 0.01 (≈ 0.0125 µM) | 0.1 (≈ 0.125 µM) | MIC [14]: ≤ 0.004 µg/mL; MIC [17]: 3.1 µg/mL (≈ 3.88 µM)

— patent US6054435A, “6-O-substituted macrolides having antibacterial activity” (priority 1999, dated 2000)
